Reference: patent publication US20180221487A1, “NOVEL PROTEIN TRANSFECTION COMPOSITIONS AND USES THEREOF” (Chang Gung Memorial Hospital, Linkou, priority 2017, published 2018)

How the values were obtained:
Experiment in all cases: Protein transfection efficiency by flow cytometry
Assay type in all cases: cell-based, human
Details in all cases: HEPES buffer 20 mM-40 mM
[1] = tested on: breast cancer cells
Procedure: (§1) Flow cytometry: After protein transfection was completed, the cells in the culture dish were washed with PBS, trypsinized and pelleted. The cells were mixed with Fixation/Permeabilization (eBioscience, Inc., San Diego, Calif., USA) working solution and incubated at 4° C. for 30 min to 24 h. Cells were washed twice with 1× Permeabilization Buffer (eBioscience, Inc., San Diego, Calif., USA). To assess the protein transfection efficiency, the cells were stained with anti-v5 or anti-flag antibodies and Alexa Fluor 488 anti-mouse antibodies on ice. Cells were suspended in 1×PBS and analyzed by flow cytometry (BD Biosciences, Qume Drive San Jose, Calif., USA). FIG. 1 schematically illustrates the protein transfection procedure. Briefly, the protein of interest and a protein transfection composition, such as HEPES buffer, were mixed and incubated for about 15 min to about 30 min to form a mixture (Panel A). Cells to be transfected were replaced in a minimal essential medium (Panel B). The mixture in Panel A was added to the cells in Panel B and incubated at 37° C. for about 4 to about 24 hours (Panel C). The protein transfection efficiency can be analyzed using immunofluorescent staining or flow cytometry (Panel D). Alexa Fluor 488 anti-mouse IgG or […]1 were incubated with Opti-MEM (the control group) or HEPES buffer (20 mM-40 mM) to transfect the following cancer cells according to the steps in Example 1: human cervical cancer cells, human breast cancer cells (MCF7, BRCA009 or BRCA011), human endometrial cancer cells, lung adenocarcinoma cells, human pancreatic cancer cells, hepatocellular carcinoma cells, scarcoma cells, renal cell carcinoma cells, lymphoma cells, nasopharyngeal carcinoma cells, brain tumor cells, colon cancer cells, and leukemic cells. The protein transfection efficiency was assessed by flow cytometry or confocal microscope.

[2] = tested on: cervical cancer cells
Procedure: as §1

[3] = tested on: endometrial cancer cells
Procedure: as §1

[4] = tested on: hepatocellular carcinoma cells
Procedure: as §1

[5] = tested on: lung adenocarcinoma cells
Procedure: as §1

[6] = tested on: pancreatic cancer cells
Procedure: as §1

rhSTIP1: v5-tagged recombinant human STIP1 protein (BiP-STIP1-V5-His), 62.6 kDa
transfection efficiency of rhSTIP1 using HEPES buffer [1]: about 98.8% | transfection efficiency of rhSTIP1 using HEPES buffer [2]: about 98.8% | transfection efficiency of rhSTIP1 using HEPES buffer [3]: ~97% | transfection efficiency of rhSTIP1 using HEPES buffer [4]: ~96.6% | transfection efficiency of rhSTIP1 using HEPES buffer [5]: ~99.5% | transfection efficiency of rhSTIP1 using HEPES buffer [6]: ~99.9%
